Assay [1] is described as follows: Venous thrombosis: venous stasis under hypercoagulation (Wessler), thrombus removed and weighed. The following applies: Rattus norvegicus, po; 12.5 mg/kg administered orally, suspension in PEG 400; thrombosis induced 4 hours after treatment. The format is in vivo, male Wistar rats. The protocol:
A venous stasis under hypercoagulation is produced according to the technique described by WESSLER et al. (J. Applied Physiol. 1959, p. 943-946). As in the technique described by J. HAUPMAN et al. (Thrombosis and Haemostasis 43(2), 1980, p. 118), the hypercoagulant used is a solution of activated factor X (Xa) supplied by Flow Laboratories (71 Knat per 12.5 ml of physiological serum).
The study is performed on unfasted male Wistar rats weighing 250 to 280 g, divided into groups of 10 animals each. The products to be tested are administered orally as a suspension in PEG 400. A thrombosis is induced 4 hours after this treatment and the thrombus formed is removed and weighed.
The results obtained at doses of 3 mg/kg or 12.5 mg/kg, administered orally, have been collated in Table II. The results obtained with the known products of the above-mentioned prior art have also been collated in this Table.

Experiment in assay [2]: as above
It is filed as in vivo, male Wistar rats. Particulars: 50 mg/kg administered orally.

These results are taken from patent US5101048A, “β-D-phenylthioxylosides, their method of preparation and their use as therapeutic agents” (Fournier Industrie et Sante, priority 1988, dated 1992).

In general, inhibition in vivo refers to the percentage by which the read-out fell short of the control. A high value points to a response far below the control. As usually defined, the % inhibition is the change of the read-out against control, counted positive when it falls. A higher % inhibition goes with strong suppression.

In assay [1], `O[C@@H]1[C@@H](O)[C@H](Sc2ccccc2)SC[C@H]1O` [Example 9, phenyl 1,5-dithio-β-D-xylopyranoside] gave an inhibition in vivo at 12.5 mg/kg of 11%. In addition, in assay [2], the “% inhibition at 50 mg/kg (footnote)” value is 82%.
